The term IC50 denotes the concentration that gives 50% inhibition. The term stoichiometry N denotes a count of units in the complex or per binding partner.

For data set [1], the target named is T1, CSR3 (RNase III of SPCSV) (Sweet potato chlorotic stunt virus, UniProt Q8JJW8). Put plainly: Kinetic-based FRET dose-response assay (IC50, DSS). Format: biochemical. The conditions noted are these: for DSS Comm 1 / DSS FIMM1 / DSS FIMM 2: drug sensitivity score; for DSS Comm 1: repeat Comm 1; for DSS FIMM1: repeat FIMM 1; for DSS FIMM 2: repeat FIMM 2. As for the experimental part:
A dose-response assay with six concentrations (1.25 nM to 50 μM) was carried out in three independent experiments, which included two tests with the 112 selected FIMM compounds (i.e., compounds prepared by the HTB-FIMM) and one test using the newly ordered commercial compounds (99 of the 112 compounds, i.e., compounds prepared by a second supplier). A dose-response curve was generated for each compound based on PI values as a function of the concentration.
The HTS assay was designed based on FRET using a 22-bp siRNA (forward sequence, […]; reverse sequence, […]) with a 2-nucleotide (nt) 3′ overhang labeled with the fluorescent dye 6-carboxyfluorescein (FAM) and a black hole quencher (BHQ1) on the sense strand (Metabion, Munich, Germany). Screening was initially carried out at one concentration (10 μM) in a 20-μl reaction buffer. […] All reaction mixtures contained 50 nM CSR3 and 375 nM labeled siRNA in 384-well black flat-bottom microplates (Corning, NY, USA) and were prepared using a BioTek MultiFlo FX dispenser with single-channel random access dispenser cassettes (BioTek, Winooski, VT, USA). The plates were read with a PHERAstar FS reader (BMG Labtech, Ortenberg, Germany).
(§1) For HTS, the activity of CSR3 was calculated by measuring the change in fluorescence as a function of the reaction time using MARS Data Analysis software (BMG Labtech). To evaluate the CSR3 inhibition efficiency of individual compounds, the PI of each compound was calculated using the slope values for the sample, positive control, and negative control according to the following equation: PI = 100 × [1 − (sample − positive)/(negative − positive)]%. IC50 and DSS values were calculated using concentration-specific PI values according to a previous study ([31]). Relative gene expression was calculated using the classical 2^−ΔΔ^CT method ([63]).

Data set [2] deals with T2, CSR3 (Sweet potato chlorotic stunt virus, UniProt Q8JJW8).
T2 sequence (Q8JJW8 1-228): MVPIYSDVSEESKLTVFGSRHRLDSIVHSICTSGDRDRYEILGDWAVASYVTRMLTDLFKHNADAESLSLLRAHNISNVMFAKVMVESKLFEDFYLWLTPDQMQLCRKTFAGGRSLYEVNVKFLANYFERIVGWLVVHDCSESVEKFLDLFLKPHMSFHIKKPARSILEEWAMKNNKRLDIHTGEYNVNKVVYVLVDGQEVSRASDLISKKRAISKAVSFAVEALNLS
Put plainly: Binding affinity assay using MST. Particulars: Table S4; for Binding (Yes/No): MST binding call; for Response Amplitude: MST response amplitude. As for the experimental part:
(§2) Binding affinity assays were first carried out with the 99 commercial compounds using the MST method.
The labeled-protein solution containing 500 nM proteins and 40 nM dye was prepared in PBS buffer with 2% dimethyl sulfoxide (DMSO) for the assay. The 12 concentrations for each compound were obtained by 2-fold serial dilutions (0.2 μM to 400 μM). […] Two independent experiments were carried out in premium coated capillaries (NanoTemper, Munich, Germany) using a Monolith NT.Automated instrument (NanoTemper) with the power set at high (80%), the light-emitting diode (LED) power (pico red) set at 5%, and the on-time set at 20 s. The dissociation constant (Kd) was determined using the MO.Affinity Analysis program (NanoTemper).

In data set [3] the test system is SPFMV. Put plainly: Virus accumulation (RT-qPCR of coat protein RNA) in coinfected sweetpotato plants grown in culture medium: SPFMV. The class given is in vivo, Sweet potato feathery mottle virus. As for the experimental part:
(§3) Since tests in culture medium consume smaller amounts of compounds and can be carried out under relatively controlled conditions, sweetpotato plants coinfected with SPCSV and SPFMV were grown in medium supplemented with one of the 30 inhibitor candidates at a concentration of 50 μM. Their effects on plant growth were monitored by imaging the plants once a week. […] In addition, virus accumulation was quantified by measuring the relative abundance of the transcripts encoding viral coat proteins using RT-qPCR ([32]). The effect of individual compounds on virus accumulation was estimated by comparing treated and control plants.
(§4) Sweetpotato plants cultivar 'Huachano' (accession CIP420065) were side-graft inoculated with both SPFMV (East African strain isolate Nam1) and SPCSV-Ug (East African serotype 2) as described previously ([62]). Plantlets were propagated by taking single-node stems grown in a plant culture medium ([33]). Next, plantlets with newly formed roots were transferred to glass tubes (18 by 150 mm) containing 10 ml of medium supplemented with either 50 μM compound (diluted in DMSO; final DMSO concentration, 0.1%) or only 0.1% DMSO as a control. For plant experiments in soil, plantlets were transferred to pots (6 by 6 by 10 cm) filled with a mixture of sand, humus, and washed soil. After 1 week, plants were treated by foliar spraying using either individual compounds at a single concentration (10 μM) (treatment) or water (control/mock) twice a week for 1 month. All plants were grown at 22°C with 60% humidity and a 16-h light/8-h dark photoperiod for 28 days in culture medium and for 41 days in soil. The Finnish National Plant Phenotyping Infrastructure (NaPPI) was used to monitor plant viral disease symptoms as described in our previous study ([33]). Four compounds were tested with the phenotyping platform in two independent batches, each of which included five biological replicates.
(§5) Leaf samples were collected from plants grown in culture medium or soil for 28 or 41 days, respectively, and frozen in liquid nitrogen. Total RNA was extracted using the Spectrum plant total RNA kit (Sigma-Aldrich). First-strand cDNA was synthesized using the Transcriptor first-strand cDNA synthesis kit (Roche, Basel, Switzerland). […] All RT-qPCR experiments were conducted in triplicate on three and five biological replicates from plants grown in culture medium and soil, respectively. The primer list can be found in our previous study ([33]).
as §1
For orientation: Quantitative PCR measures a nucleic acid by following its amplification.

For data set [4], the system named is SPCSV. Put plainly: Virus accumulation (RT-qPCR of coat protein RNA) in coinfected sweetpotato plants grown in culture medium: SPCSV. The class given is in vivo, Sweet potato chlorotic stunt virus. As for the experimental part: as §3, §4, §5, §1
For data set [5], the system named is SPCSV. Particulars: plants in soil, 10 μM foliar spray twice a week for 1 month, vs water-treated. As for the experimental part:
(§6) Compounds were administered by regular foliar spray over 1 month.
as §4
(§7) Leaf samples were collected from plants grown in culture medium or soil for 28 or 41 days, respectively, and frozen in liquid nitrogen. Total RNA was extracted using the Spectrum plant total RNA kit (Sigma-Aldrich). First-strand cDNA was synthesized using the Transcriptor first-strand cDNA synthesis kit (Roche, Basel, Switzerland). Gene expression was measured in a final volume of 10 μl (containing 2 μl 10-fold-diluted cDNA, 5 μl SYBR green I master mix [Roche], and 2.5 μM primers) using the LightCycler 480 instrument II (Roche). All RT-qPCR experiments were conducted in triplicate on three and five biological replicates from plants grown in culture medium and soil, respectively. The primer list can be found in our previous study ([33]).
as §1

Data set [6] concerns SPFMV. Particulars: plants in soil, 10 μM foliar spray twice a week for 1 month, vs water-treated. As for the experimental part: as §6, §4, §7, §1
The next data set has as its system sweetpotato plants. Particulars: 50 μM in culture medium.
The test system of data set [7] is human enzymes or bacterial proteins. Details: method as in earlier work. The conditions noted are these: ref PubChem https://pubchem.ncbi.nlm.nih.gov/compound/7114450#section=Biological-Test-Results; cited from earlier work.
For data set [8], the target named is T1, CSR3 (RNase III of SPCSV). Put plainly: Kinetic-based HTS (FRET, labeled 22-bp siRNA cleavage), one concentration. The class given is biochemical. The conditions noted are these: compound 10 μM, 375 nM siRNA, 37°C.
Text: Based on the catalytic activity of CSR3 on 22-bp siRNA, our kinetic-based HTS assay was designed using distance-dependent FRET technology. Specifically, one strand of siRNA, as a substrate, was labeled with a fluorescent dye (6-carboxyfluorescein [FAM]) at the 5′ end and a quencher (black hole quencher 1 [BHQ1]) at the 3′ end. The initial reaction rate of CSR3 was quantified using the slope of raw fluorescence under an excitation/emission spectrum at 485/520 nm (Fig. 3A). […] In this study, a total of 6,622 compounds (including 6,400 selected from Glide docking and 222 empirically selected compounds for preliminary assay setup) were screened using kinetic-based HTS at a final concentration of 10 μM. All 384-well screening plates contained 32 negative (with CSR3 [i.e., the substrate was successfully cleaved]) and 32 positive (without CSR3 [i.e., the substrate remained intact]) control reaction mixtures. To evaluate the quality of the HTS assay, the Z-factor (Z′) parameter was calculated using the reaction rates of the positive and negative controls ([30]). […]
The HTS assay was designed based on FRET using a 22-bp siRNA (forward sequence, […]; reverse sequence, […]) with a 2-nucleotide (nt) 3′ overhang labeled with the fluorescent dye 6-carboxyfluorescein (FAM) and a black hole quencher (BHQ1) on the sense strand (Metabion, Munich, Germany). […] The plates were read with a PHERAstar FS reader (BMG Labtech, Ortenberg, Germany).
as §1

Data set [9] deals with T2, CSR3. Nature of the data set: Binding affinity assay using SPR. Particulars: SPR dose-response 3 μM to 200 μM, 25°C; unit inferred, numbers match M (cf. Fig 5A); read-out: Steady State Affinity. As for the experimental part:
as §2
CSR3 was purified as described above and stored in PBS buffer. SPR was performed on a BiacoreT100 instrument (GE Healthcare) using a sensor S CM5 chip (GE Healthcare). CSR3 (10 ng/μl) was immobilized using the standard amine-coupling method according to the manufacturer’s instructions with immobilization buffer (10 mM sodium acetate [pH 4]); the final response unit (RU) value was 11,459. Compounds at a single concentration (100 μM) or consisting of 2-fold serial dilutions (3 μM to 200 μM) were flowed over the sensor surface using PBS buffer with 0.01 M HEPES, 0.05% surfactant P20, and 2% DMSO. […] To eliminate bulk interference by DMSO, a solvent correction consisting of DMSO at concentrations ranging from 1.5% to 2.8% was carried out for every 30 samples. Steady-state affinity (KD) values were determined using BiacoreT100 Evaluation software, v.2.04 (GE Healthcare).
A general note: SPR reads the build-up and loss of mass on a sensor chip optically.

The target of data set [10] is RNase III of Sweet potato chlorotic stunt virus (CSR3), His-tagged full-length (Sweet potato chlorotic stunt virus (SPCSV)). Nature of the data set: native gel or EMSA; native Western blotting of purified CSR3, detected with rabbit polyclonal antibodies against CSR3; monomer to dimer. A general note: In EMSA bound probe runs differently from free probe, usually more slowly.

[11] abbreviates: kinetic-based HTS, Fig 5A summary.
[12] abbreviates: 50 μM in culture medium, 28 days, relative to DMSO control.
Setting [13] is: plants in culture medium, 50 μM.

Where two headings read alike, the source gives them in different places.

As for `O=C(O)c1ccc2c(c1)C1C=CCC1C(c1ccccc1)N2` (stereo not shown) [FIMM005536], in [1], the “DSS Comm 1” value came out at 12.4, the “DSS FIMM1” value turned out to be 12.5 and the “DSS FIMM 2” value is given as 12.1. Moreover, in [1] (setting [11]), the DSS came to 12.5 and the IC50 is roughly 2740 nM. In addition, the IC50 in [1] (read-out: IC50 Comm 1, repeat Comm 1 (commercial compounds), 1.25 nM to 50 μM, unit inferred, numbers match nM) was found to be 2880 nM. The half-inhibitory concentration (IC50) in [1] (read-out: IC50 FIMM1, repeat FIMM 1 (FIMM library compounds), 1.25 nM to 50 μM, unit inferred, numbers match nM (cf. Fig 5A)) worked out at 2750 nM. Besides, the IC50 in data set [1] (read-out: IC50 FIMM 2, repeat FIMM 2 (FIMM library compounds), 1.25 nM to 50 μM, unit inferred, numbers match nM) is 2930 nM. On CSR3 [2], the “Binding (Yes/No)” value is “No” and the “Response Amplitude” value is given as 0. The “SPFMV_FC (fold change of viral accumulation)” value in the data set with SPFMV [3] (setting [12]) is 0.2931. In the data set with SPFMV [3] (setting [13]), the SPFMV accumulation reduced was roughly 4 fold and the “viral titer SPFMV (log2 fold change relative to controls)” value is on record as −1.77. Further, in the data set with SPCSV [4] (setting [12]), the “SPCSV_FC (fold change of viral accumulation)” value was found to be 0.1274. Also, in the data set on SPCSV [4] (setting [13]), the SPCSV accumulation reduced result is “approximately 8 fold” and the “viral titer SPCSV (log2 fold change relative to controls)” value was −2.97. For the same compound, the “log2 fold change in coat protein expression of SPCSV” value with SPCSV [5] is −1.67. Also, the “log2 fold change in coat protein expression of SPFMV” value in the data set on SPFMV [6] is −1.36. Further, in the data set on sweetpotato plants, the Toxicity entry is recorded as “no”. The “activity in inhibitor screens for human enzymes or bacterial proteins” value in data set [7] was “inactive”.
For `Cc1ccc(C)c(C(=O)CSc2nnc[nH]2)c1` [FIMM027745], the “PI values (percentage of inhibition)” value in data set [8] was found to be 98.0616%. Besides, in data set [1], the “DSS Comm 1” value stood at 1.9, the “DSS FIMM1” value came out at 19.2 and the “DSS FIMM 2” value is 16.7. Moreover, in [1] (repeat Comm 1 (commercial compounds), 1.25 nM to 50 μM, unit inferred, numbers match nM, read-out: IC50 Comm 1), the concentration for half-maximal inhibition (IC50) stood at 14900 nM. The IC50 in data set [1] (repeat FIMM 1 (FIMM library compounds), 1.25 nM to 50 μM, unit inferred, numbers match nM (cf. Fig 5A), read-out: IC50 FIMM1) was 647 nM. Further, the 50% inhibitory concentration (IC50) in data set [1] (repeat FIMM 2 (FIMM library compounds), 1.25 nM to 50 μM, unit inferred, numbers match nM, read-out: IC50 FIMM 2) came to 1120 nM. Further, on CSR3 [2], the “Binding (Yes/No)” value was “No” and the “Response Amplitude” value is listed as 0. Also, on CSR3 [9], the Kd is 13 µM.
As to “RNase III of Sweet potato chlorotic stunt virus (CSR3), His-tagged full-length (enzyme)”, the stoichiometry N in [10] was found to be 2.

Source of the values: article PMC8315922, “In Vitro Identification and In Vivo Confirmation of Inhibitors for Sweet Potato Chlorotic Stunt Virus RNA Silencing Suppressor, a Viral RNase III” (Journal of Virology, 2021).
